Results published in ChEMBL document CHEMBL5053554, “Identification of novel influenza polymerase PB2 inhibitors using virtual screening approach and molecular dynamics simulation analysis of active compounds” (Bioorg Med Chem, 2021).

Assays:
[1] = tested on: Influenza A virus (A/Puerto Rico/8/1934(H1N1)); assay: Antiviral activity against Influenza A virus (A/Puerto Rico 8/1934 (H1N1)) infected in MDCK cells assessed as inhibition of virus-induced cytopathic effect measured after 72 hrs by CellTiter-Glo viability assay; format: functional, organism-based
[2] = Cytotoxicity against MDCK cells assessed as reduction in cell viability measured after 72 hrs by CCK8 analysis; format: cell-based, Canis lupus familiaris; settings: dog
[3] = Antiviral activity against Influenza A virus (A/Hong Kong/1-8/1968(H3N2)) infected in MDCK cells assessed as inhibition of virus-induced cytopathic effect measured after 72 hrs by CellTiter-Glo viability assay; format: functional, cell-based
[4] = biological target: Polymerase basic protein 2 (Influenza A virus (strain A/Puerto Rico/8/1934 H1N1), UniProt P03428); assay: Binding affinity to CM5 immobilized N-terminal His/Sumo tagged Influenza A virus (A/WSN/1933(H1N1)) PB2 CBD (318 to 486 residues) expressed in Escherichia coli by surface plasmon resonance assay
Chain of Polymerase basic protein 2 (P03428 whole entry, the tested form may be a part): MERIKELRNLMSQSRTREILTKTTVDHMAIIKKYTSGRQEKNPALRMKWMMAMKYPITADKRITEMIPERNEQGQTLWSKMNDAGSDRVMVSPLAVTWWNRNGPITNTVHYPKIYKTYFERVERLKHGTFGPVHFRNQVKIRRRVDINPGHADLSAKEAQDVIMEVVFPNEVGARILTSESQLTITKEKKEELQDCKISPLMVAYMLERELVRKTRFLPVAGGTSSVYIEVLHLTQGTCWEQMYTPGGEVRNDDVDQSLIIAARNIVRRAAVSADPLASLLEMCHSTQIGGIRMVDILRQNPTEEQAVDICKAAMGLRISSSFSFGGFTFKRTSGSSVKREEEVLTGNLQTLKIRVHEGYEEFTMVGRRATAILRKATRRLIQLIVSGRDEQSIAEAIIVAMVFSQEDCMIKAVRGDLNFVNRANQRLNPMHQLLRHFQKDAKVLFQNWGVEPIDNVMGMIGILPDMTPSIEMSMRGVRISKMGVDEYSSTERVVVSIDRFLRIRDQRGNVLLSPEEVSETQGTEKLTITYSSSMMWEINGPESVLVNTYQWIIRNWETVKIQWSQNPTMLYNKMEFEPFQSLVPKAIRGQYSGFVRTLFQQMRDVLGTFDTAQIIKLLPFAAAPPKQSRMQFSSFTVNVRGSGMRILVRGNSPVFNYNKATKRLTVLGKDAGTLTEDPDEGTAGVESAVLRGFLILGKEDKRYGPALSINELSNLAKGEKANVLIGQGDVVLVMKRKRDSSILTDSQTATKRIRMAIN

CCC(CC)O[C@@H]1C=C(C(=O)O)C[C@H](N)[C@H]1NC(C)=O [OSELTAMIVIR CARBOXYLATE]
EC50 [1]: 3.07 µM
CC50 at 72 h [2]: > 100 µM
EC50 [3]: 0.03 µM

O=C(O)[C@H]1C2CCC(CC2)[C@@H]1Nc1nc(-c2c[nH]c3ncc(F)cc23)ncc1F [PIMODIVIR]
Kd [4]: 0.054 µM
EC50 [1]: < 0.005 µM
CC50 at 72 h [2]: > 100 µM
EC50 [3]: 1.84 µM

O=C(O)CSc1nc(-c2ccccc2)nc2c1oc1ccccc12
Kd [4]: 0.25 µM
EC50 [1]: 22.4 µM
CC50 at 72 h [2]: > 100 µM
EC50 [3]: 27 µM

O=c1[nH]c2ccc(NCc3ccc(Cl)c(Cl)c3)cc2[nH]1
Kd [4]: 6.4 µM
EC50 [1]: 21.7 µM
CC50 at 72 h [2]: > 100 µM
EC50 [3]: 7.44 µM

Cc1c(O[C@H](C(=O)O)c2ccccc2)ccc2c1oc(=O)c1ccccc12
Kd [4]: 0.11 µM
EC50 [1]: 26.5 µM
CC50 at 72 h [2]: > 100 µM
EC50 [3]: 15.1 µM

O=C(O)CSc1cc(O)c2c(c1O)C(=O)c1ccccc1C2=O
Kd [4]: 0.58 µM
EC50 [1]: 5.81 µM
CC50 at 72 h [2]: 49.7 µM
EC50 [3]: 7.55 µM

O=C(c1cc(=O)[nH]c2ccccc12)N1CCc2[nH]c3ccccc3c2C1
Kd [4]: 1.6 µM
EC50 [1]: 42.8 µM
CC50 at 72 h [2]: > 100 µM
EC50 [3]: 41.5 µM

O=C1c2ccccc2C(=O)c2cc(OC[C@H](O)Cn3cnc4ccccc43)ccc21
Kd [4]: 2.2 µM
EC50 [1]: 33.2 µM
CC50 at 72 h [2]: > 100 µM
EC50 [3]: 25.2 µM
